Active and inactive are the calls of the source. How the calls were made is not given here.
System: CCRIS mutagenicity, Ames/micronucleus/aberration tests
Experiment: CCRIS mutagenicity studies

With `O=S(O)S(=O)(=O)O` the mutagenic call (End Point: In vitro chromosomal aberration, Test System: Human lymphocytes, Metabolic Activation: None) was “active; positive (structural changes)”, the mutagenic call (End Point: In vitro micronucleus, Test System: Human lymphocytes, Metabolic Activation: None) was “active; positive” and the mutagenic call (End Point: In vivo micronucleus, Test System: Bone marrow cells, Species: Rat, Strain/Sex: Rattus norvegicus var. albino / Male, female, Route: Intraperitoneal) was “active; positive (structural changes)”. The mutagenic call (Test System: AMES SALMONELLA TYPHIMURIUM, Strain/Indicator: TA97, Metabolic Activation: NONE, Method: PREINCUBATION) was “inactive; negative”, the mutagenic call (Test System: AMES SALMONELLA TYPHIMURIUM, Strain/Indicator: TA97, Metabolic Activation: RAT, LIVER, S-9, AROCLOR 1254, Method: PREINCUBATION) was “inactive; negative” and the mutagenic call (Test System: AMES SALMONELLA TYPHIMURIUM, Strain/Indicator: TA98, Metabolic Activation: NONE, Method: STANDARD PLATE) was “inactive; negative”. For the same molecule, the mutagenic call (Test System: AMES SALMONELLA TYPHIMURIUM, Strain/Indicator: TA98, Metabolic Activation: RAT, LIVER, S-9, AROCLOR 1254, Method: STANDARD PLATE) was “inactive; negative”, the mutagenic call (Test System: AMES SALMONELLA TYPHIMURIUM, Strain/Indicator: TA100, Metabolic Activation: NONE, Method: STANDARD PLATE) was “inactive; negative” and the mutagenic call (Test System: AMES SALMONELLA TYPHIMURIUM, Strain/Indicator: TA100, Metabolic Activation: RAT, LIVER, S-9, AROCLOR 1254, Method: STANDARD PLATE) was “inactive; negative”. For the same molecule, the mutagenic call (Test System: AMES SALMONELLA TYPHIMURIUM, Strain/Indicator: TA102, Metabolic Activation: NONE, Method: PREINCUBATION) was “inactive; negative”, the mutagenic call (Test System: AMES SALMONELLA TYPHIMURIUM, Strain/Indicator: TA102, Metabolic Activation: RAT, LIVER, S-9, AROCLOR 1254, Method: PREINCUBATION) was “inactive; negative” and the mutagenic call (Test System: AMES SALMONELLA TYPHIMURIUM, Strain/Indicator: TA1535, Metabolic Activation: NONE, Method: STANDARD PLATE) was “inactive; negative”. The mutagenic call (Test System: AMES SALMONELLA TYPHIMURIUM, Strain/Indicator: TA1535, Metabolic Activation: RAT, LIVER, S-9, AROCLOR 1254, Method: STANDARD PLATE) was “inactive; negative”, the mutagenic call (Test System: AMES SALMONELLA TYPHIMURIUM, Strain/Indicator: TA1537, Metabolic Activation: NONE, Method: STANDARD PLATE) was “inactive; negative” and the mutagenic call (Test System: AMES SALMONELLA TYPHIMURIUM, Strain/Indicator: TA1537, Metabolic Activation: RAT, LIVER, S-9, AROCLOR 1254, Method: STANDARD PLATE) was “inactive; negative”. The mutagenic call (Test System: AMES SALMONELLA TYPHIMURIUM, Strain/Indicator: TA1538, Metabolic Activation: NONE, Method: STANDARD PLATE) was “inactive; negative”, the mutagenic call (Test System: AMES SALMONELLA TYPHIMURIUM, Strain/Indicator: TA1538, Metabolic Activation: RAT, LIVER, S-9, AROCLOR 1254, Method: STANDARD PLATE) was “inactive; negative” and the mutagenic call (Test System: E. COLI, Strain/Indicator: WP2, Metabolic Activation: NONE, Method: STANDARD PLATE) was “inactive; negative”. The mutagenic call (Test System: E. COLI, Strain/Indicator: WP2, Metabolic Activation: RAT, LIVER, S-9, AROCLOR 1254, Method: STANDARD PLATE) was “inactive; negative”.

From PubChem BioAssay AID1259407 (Chemical Carcinogenesis Research Information System (CCRIS), 2018)
